In patent US12251417B2, “Antimicrobial compounds from the genus Delftia” (Ministry of Health, State of Israel, priority 2017, dated 2025):
Values after ≈ are worked out from the molar mass of the structure shown. Square brackets hold non-standard residues; d marks the D form. Peptide text beside a SMILES is read from it. * marks the point of attachment. ξ: configuration not given here. NH(1-OH-2-oxopiperidin-3-yl) = O=C1C(N*)CCCN1O; ξOrn(N(OH)CHO) = NC(CCCN(O)C=O)C(=O)O; ξAsp(3ξ-OH) = NC(C(=O)O)C(O)C(=O)O; X1 = CC(N)C(O)C(C)C(=O)*; Dhb = C/C=C(\N)C(=O)O

Columns and labels:
[1] = system: vancomycin resistant enterococci (VRE); experiment: Inhibition of VRE by Delftibactin A alone and with antibiotics; type: cell-based
Text: FIG. 33 is a graph illustrating that Delftibactin A inhibits Vancomycin Resistant Enterococci (VRE).

[2] = system: C. albicans ATCC64124; experiment: Broth microdilution MIC; type: cell-based; conditions: lowest concentration that inhibited ≥50% of growth after overnight incubation
Method: Deftibactin A was serially diluted in DMSO with a dilution factor of 2, to provide 10 concentrations for all the assays. The MIC is defined as the lowest concentration of compound that inhibited ≥90% or ≥50% of the growth of a microorganism after overnight incubation. Genedata Screener software (Genedata, Inc., Basel, Switzerland) was used to analyze the data and to determine the MICs and calculate the RZ′ factor, to estimate the robustness of the assays. Delftibactin A was tested on two different days and in triplicate.
Broth microdilution was used to determine the minimal inhibitory concentration (MIC) according to the standards of the Clinical and Laboratory Standards Institute (CLSI) or the European Committee on Antimicrobial Susceptibility Testing (EUCAST). Cation-adjusted Mueller-Hinton broth (CAMHB) was used with inoculum of about 5×10^5 cfu ml^−1 of the tested pathogen. Direct suspension of overnight colonies into CAMHB was used for the generation of the bacterial suspension. The tested inhibited compound or supernatant was used in doubling dilutions in 50 μl of CAMHB and inoculated with an equal amount of bacteria in the broth.

[3] = system: HepG2; experiment: MTT cytotoxicity assay; type: cell-based, human; conditions: 24/72 hours
Text: (§1) MTT (3-(4,5-Dimethylthiazol-2-yl)-2,5-diphenyltetrazolium bromide) is a colorimetric assay for measuring the activity of cellular enzymes that reduce the tetrazolium dye, MTT, to its insoluble formazan, giving a purple color. This assay measure mitochondrial metabolic activity via NAD(P)Hdependent cellular oxidoreductase enzymes and may, under defined conditions, reflect the number of viable cells. The cells used in this study were: Hep G2 (HB-8065) is a perpetual cell line which was derived from the liver tissue of a person with a well-differentiated hepatocellular carcinoma. THLE-2 is a perpetual cell line which was derived from the liver epithelial cells of an adult human transformed with SV40 large T antigen.
(§2) The assay: cell concentration treatment 24 hours: Cells were seeded at a concentration of 2×10^4 cells/well in 200 μl culture medium and incubated at 37° C. in 5% CO2. Cell concentration treatment 72 hours: Cells were seeded at a concentration of 1×10^4 cells/well in 200 μl culture medium and incubated at 37° C. in 5% CO2. After 24 hours, the medium was replaced with a final volume of 200 μl and 1 μl of compound (dilution 1/200) and controls were added to the plates. […]
(§3) When extracts/compounds and controls were added, plates were incubated at 37° C. in 5% CO2 incubator for 24/72 hours. […] The absorbance was measured using a multireader Victor™ at a wavelength of 570 nm.

[4] = system: THLE2; experiment: MTT cytotoxicity assay; type: cell-based, human; conditions: 24/72 hours
Text: as §1, §2, §3

[5] = system: Deftia strain 2189; experiment: Delftibactin A as carrier of gallium; type: cell-based, Delftia; conditions: with gallium
Text: FIG. 36 is a graph illustrating that Delftibactin A can be used as a carrier of inhibitory antimicrobial agents such as gallium to inhibit harmful bacterial strains such as Deftia strain 2189.

With `C/C=C(\NC(=O)CNC(=O)C(NC(=O)C(NC(=O)C(C)C(O)C(C)N)C(O)C(=O)O)C(C)O)C(=O)NC(CCCN(O)C=O)C(=O)NC(CO)C(=O)NC(CCCN=C(N)N)C(=O)NC1CCCN(O)C1=O` (stereo not shown) [Delftibactin A] (X1-[ξAsp(3ξ-OH)]TG[Dhb][ξOrn(N(OH)CHO)]SR-{NH(1-OH-2-oxopiperidin-3-yl)}; configuration not given here) the “inhibition of vancomycin resistant enterococci (VRE)” value [1] was “inhibits”, the “combined antimicrobial effect with clarithromycin on VRE” value ([1]; Delftibactin A 10 μM) was “additive combined antimicrobial effect” and the “combined antimicrobial effect with rifampicin on VRE” value ([1]; Delftibactin A 10 μM) was “additive combined antimicrobial effect”. The MIC50 [2] was 16 µg/mL (≈ 15.5 µM), the “cytotoxic activity (MTT)” value [3] was “not have cytotoxic activity” and the “cytotoxic activity (MTT)” value [4] was “not have cytotoxic activity”. The “inhibition of Deftia strain 2189 as carrier of gallium” value [5] was “inhibit”.
